Experimental data published in ChEMBL document CHEMBL5126544, “Recent results from non-basic glycosidase inhibitors: How structural diversity can inform general strategies for improving inhibition potency” (Eur J Med Chem, 2022).
≈ marks a conversion by molar mass, not a printed value. Blank lines part the entries; values can stand above or below the compound they belong to.

What was measured:
[1] = Inhibition of Aspergillus niger maltase preincubated for 10 mins followed by substrate addition
[2] = Inhibition of rat intestinal maltase preincubated for 10 mins followed by substrate addition
[3] = Inhibition of baker's yeast sucrase preincubated for 10 mins followed by substrate addition; parameters: species or system Saccharomyces cerevisiae
[4] = Inhibition of rat intestinal trehalase preincubated for 10 mins followed by substrate addition
[5] = Inhibition of rat intestinal lactase preincubated for 10 mins followed by substrate addition
[6] = Inhibition of rat intestinal gluco-amylase preincubated for 10 mins followed by substrate addition
[7] = Inhibition of rat intestinal isomaltase preincubated for 10 mins followed by substrate addition
[8] = Inhibition of rat intestinal sucrase preincubated for 10 mins followed by substrate addition
[9] = Inhibition of mammalian alpha-amylase using starch as substrate; parameters: species or system Mammalia
Alpha amylase = target: T1, Alpha amylase (Homo sapiens, UniProt P0DUB6); assay: Inhibition of human salivary alpha-amylase using starch as substrate preincubated for 5 mins followed by substrate addition for 8 mins and incubated with iodide potassium for another 5 mins; parameters: species or system Saliva
T1 sequence (P0DUB6 whole entry): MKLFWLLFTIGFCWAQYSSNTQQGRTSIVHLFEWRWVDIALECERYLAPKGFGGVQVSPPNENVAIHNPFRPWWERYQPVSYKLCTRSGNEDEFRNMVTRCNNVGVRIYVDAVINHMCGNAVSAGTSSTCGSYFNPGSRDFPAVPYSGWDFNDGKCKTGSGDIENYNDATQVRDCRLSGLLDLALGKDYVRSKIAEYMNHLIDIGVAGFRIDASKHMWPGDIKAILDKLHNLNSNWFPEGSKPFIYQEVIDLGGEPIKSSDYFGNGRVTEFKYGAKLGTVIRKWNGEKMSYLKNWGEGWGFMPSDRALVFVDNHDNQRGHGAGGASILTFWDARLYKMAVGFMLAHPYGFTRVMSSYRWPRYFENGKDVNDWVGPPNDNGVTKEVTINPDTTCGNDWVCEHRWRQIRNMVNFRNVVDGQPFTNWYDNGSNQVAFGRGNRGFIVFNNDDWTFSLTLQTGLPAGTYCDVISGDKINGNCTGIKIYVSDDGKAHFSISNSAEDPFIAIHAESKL

[10] = Inhibition of yeast alpha-glucosidase using p-nitrophenyl-alpha-D-glucopyranoside as substrate preincubated for 5 mins followed by substrate addition measured after 5 mins by microplate reader analysis; parameters: species or system Saccharomyces cerevisiae
[11] = Inhibition of porcine alpha-amylase using starch as substrate preincubated for 10 mins followed by substrate addition and measured after 10 mins by microplate reader analysis; parameters: species or system Sus scrofa
[12] = Cytotoxicity against MDCK cells; format: toxicity, cell-based, Canis lupus familiaris; details: dog

SMILES: CC1(C)CCC[C@]2(C)c3cc(O)c(O)cc3C(=O)C[C@@H]12
IC50 [1]: 14 µM
IC50 [2]: 12 µM
IC50 [3]: 11 µM
IC50 [4]: 30 µM
IC50 [5]: 20 µM
IC50 [6]: 1.6 µM
IC50 [7]: 0.85 µM
IC50 [8]: 6.8 µM

SMILES: C=C1CC[C@@H]2[C@](C)(CO)[C@H](O)CC[C@@]2(C)[C@@H]1C/C=C1/C(=O)OC[C@H]1O [ANDROGRAPHOLIDE]
IC50 [10]: 11 mg/mL (≈ 31.4 mM)
IC50 [11]: 11 mg/mL (≈ 31.4 mM)

SMILES: C/C=C/Oc1cc(C=O)ccc1O
IC50 [12]: > 600 µM

Second part, the compound after the results:

IC50 [9]: 120 µM
SMILES: CC(C)=CCC/C(C)=C/C=O [CITRAL]

IC50 (Alpha amylase): 600 µM
SMILES: COC(=O)/C=C/c1ccc(OC/C=C(\C)CO)cc1
